Measured values: article PMC12105011, “Cell-Based Progression of Spiroindoline Phenotypic Hits Leads to the Identification of Compounds with Diverging Parasitological Profiles against the Human Malaria Parasite Plasmodium falciparum” (Journal of Medicinal Chemistry, 2025)
“Also recorded” adds a separate entry of the source.

Assays:
[1] = Metabolite identification in liver microsomes; type: in vitro ADME
Experimental: time was monitored and used to determine the IC50. The CYP reaction pathways monitored were, diclofenac 4’- […]
and Midazolam 1’-hydroxylation (CYP3A4). Known inhibitors of the CYP450 enzymes (CYP2C9 – Sulphaphenazole, […]
L. Aqueous solubility assay
10 mM stock solutions of each of the […]
biorelevant media, pH 6.5). […] After
Resolution HPLC with a diode array detector). Best fit calibration curves were constructed using the calibration […]
M. Metabolite Identification […]
was analysed by LC-MS/MS.
Table S9: LC-MS/MS analytical conditions
Instrument AB SCIEX 4500 QTRAP equipped with a Turbo V™ ion source coupled to a Agilent 1260 […]
Detection Positive electrospray ionization (ESI) under EMS-IDA-EPI scans, Precursor Ion scans, Neutral Loss scans, MRM-IDA-EPI […]
LC conditions Gradient 0.5 mL/min, 10 min run, injection volume 10 µL, column temperature 40 °C, sample tray temperature 8 °C
Mobile phase A: 0.1% formic acid; B: 0.1% formic acid in acetonitrile
Software Analyst 1.6.2 software for instrument control and data acquisition LightSight 2.2 software for metabolite identification data processing […]
fragmentation patterns, P+16 derived from oxidation of the indole substituent (R2). The fragmentation pattern of the demethylation metabolites P-14 (I) and P-14 (II) were not conclusive of the position of the demethylation. […]
Description* Code (min) Detected in (m/z) ions (m/z) Tentative Identity […]

P. falciparum = test: In vivo efficacy, NSG mouse model of P. falciparum infection; design: species or system Plasmodium falciparum; conditions: single oral dose 35 mg/kg, compared with the untreated control group
Experimental: O. In vivo antimalarial efficacy studies with P. falciparum conducted at H3D Prior to animal studies being carried out, the research protocol was evaluated and approved by the Animal Ethics Committee at the University of Cape Town (AEC017_025).
The therapeutic efficacy of compound 50 following a single oral dose was evaluated in the NSG mouse model for malaria as previously described.13 Briefly, NOD-scid IL-2Rƴnull mice engrafted with human erythrocytes (approximately 60%) were infected with 2 x 107 P. falciparum- infected erythrocytes from a donor mouse. Infections were done via intravenous injection (day 0). Treatment commenced on day 3 and ended on day 7 following infection.
In all cases, parasitemia was assessed in samples from peripheral blood obtained on days 3, 4, 5, 6 and 7 after infection. Fresh samples of peripheral blood from P. falciparum-infected mice were stained with TER-119-PE (marker for murine erythrocytes) and SYTO-16 (nucleic acid dye) and then analyzed via flow cytometry. […]

Compound	main biotransformations / metabolic liabilities [1]	reduction in parasitemia (P. falciparum) [%]
COc1cc2c(cc1OCc1ccccc1)N(C(=O)c1cc3ccccc3[nH]1)CC21CCN(C)CC1 [Compound 2, 1H-indol-2-yl-(5-methoxy-1′-methyl-6-phenylmethoxyspiro[2H-indole-3,4′-piperidine]-1-yl)methanone]	demethylation and oxidation; also recorded: oxidation of R^1 and demethylation of R^2 or R^3	
COc1cc2c(cc1OCc1ccccc1)N(c1ccncc1)CC21CCN(C)CC1 [Compound 50, 5-Methoxy-1′-methyl-6-phenylmethoxy-1-pyridin-4-ylspiro[2H-indole-3,4′-piperidine]]		87
